According to US20060069132A1, “Azolecarboxamide herbicides” (priority 2004, published 2006):

Experiments:
ducksalad = assay: Test B flooded paddy test; format: in vivo, Heteranthera limosa; conditions: 1000 g ai/ha, visual rating, scale 0 to 100 (0 no effect, 100 complete control), 13 to 15 days
How it was run: (§1)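 Each value is a visual 0–100 response rating taken against controls 13 to 15 days after treatment in the greenhouse. Plants received formulated chemical postemergence at the 1- to 4-leaf stage or, in flooded paddy, at the 2-leaf stage.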

wild oat = assay: Test B postemergence herbicide test; format: in vivo, Avena fatua; conditions: postemergence, visual rating, scale 0 (no effect) to 100 (complete control)
How it was run: (§2)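 Postemergence plants were sprayed with formulated test chemicals at 2 to 18 cm height (1- to 4-leaf stage); paddy species were grown to the 2-leaf stage. After 13 to 15 days in a greenhouse, injury was rated visually against untreated controls on a 0–100 scale (0 = no effect, 100 = complete control).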

large crabgrass [1] = assay: Test A pre-/postemergence herbicide test; format: in vivo, Digitaria sanguinalis
How it was run: (§3)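 Pre: seeded sandy loam, directed soil spray, compound in non-phytotoxic solvent + surfactant. Post: 1–2-leaf plants (2–10 cm), sprayed to runoff. Greenhouse ~10 d; visual injury vs untreated, 0–100 scale.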

Surinam grass = assay: Test B pre-/postemergence herbicide test; format: in vivo, Urochloa decumbens; conditions: for Plant response rating, Surinam Grass: preemergence; for Surinam Grass plant response rating: postemergence, visual rating, scale 0 (no effect) to 100 (complete control)
How it was run: (§4)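 Evaluation is visual, comparing treated with control plants on a scale where 0 means no effect and 100 means full control. Treatments were preemergence, or postemergence on seedlings 2–18 cm tall, and held 13–15 days in the greenhouse.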

blackgrass = assay: Test B postemergence herbicide test; format: in vivo, Alopecurus myosuroides; conditions: postemergence, visual rating, scale 0 (no effect) to 100 (complete control)
How it was run: as §1

velvetleaf [2] = assay: Test B pre-/postemergence herbicide test; format: in vivo, Abutilon theophrasti; conditions: for Plant response rating, Velvetleaf: preemergence; for Velvetleaf plant response rating: postemergence, visual rating, scale 0 (no effect) to 100 (complete control)
How it was run: as §4

barnyardgrass [3] = assay: Test B pre-/postemergence herbicide test; format: in vivo, Echinochloa crus-galli; conditions: for Plant response rating, Barnyardgrass: preemergence; for Barnyardgrass plant response rating: postemergence, visual rating, scale 0 (no effect) to 100 (complete control)
How it was run: as §4

morningglory [4] = assay: Test A pre-/postemergence herbicide test; format: in vivo, Ipomoea spp.
How it was run: as §3

barnyardgrass [5] = assay: Test B flooded paddy test; format: in vivo, Echinochloa crus-galli; conditions: 1000 g ai/ha, visual rating, scale 0 to 100 (0 no effect, 100 complete control), 13 to 15 days
How it was run: as §1

velvetleaf [6] = assay: Test A pre-/postemergence herbicide test; format: in vivo, Abutilon theophrasti
How it was run: as §3

rice [7] = assay: Test B flooded paddy test; format: in vivo, Oryza sativa; conditions: 1000 g ai/ha, visual rating, scale 0 to 100 (0 no effect, 100 complete control), 13 to 15 days
How it was run: as §1

morningglory [8] = assay: Test B pre-/postemergence herbicide test; format: in vivo, Ipomoea coccinea; conditions: for Plant response rating, Morningglory: preemergence; for Morningglory plant response rating: postemergence, visual rating, scale 0 (no effect) to 100 (complete control)
How it was run: as §4

lambsquarters = assay: Test B pre-/postemergence herbicide test; format: in vivo, Chenopodium album; conditions: for Lambsquarters plant response rating: postemergence, visual rating, scale 0 (no effect) to 100 (complete control)
How it was run: as §4

rice [9] = assay: Test B pre-/postemergence herbicide test; format: in vivo, Oryza sativa; conditions: preemergence
How it was run: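 Plants compared with untreated controls 13–15 days post-treatment and given a visual 0–100 injury score. Applications: preemergence to seeds; postemergence at 1- to 4-leaf (2–18 cm); paddy species flooded, 2-leaf stage. Vehicle non-phytotoxic, surfactant included.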

giant foxtail [10] = assay: Test B pre-/postemergence herbicide test; format: in vivo, Setaria faberi; conditions: for Plant response rating, Foxtail, Giant: preemergence; for Foxtail, Giant plant response rating: postemergence, visual rating, scale 0 (no effect) to 100 (complete control)
How it was run: as §4

giant foxtail [11] = assay: Test A pre-/postemergence herbicide test; format: in vivo, Setaria faberi
How it was run: as §3

pigweed = assay: Test B pre-/postemergence herbicide test; format: in vivo, Amaranthus retroflexus; conditions: for Plant response rating, Pigweed: preemergence; for Pigweed plant response rating: postemergence, visual rating, scale 0 (no effect) to 100 (complete control)
How it was run: as §4

corn = assay: Test B pre-/postemergence herbicide test; format: in vivo, Zea mays; conditions: for Plant response rating, Corn: preemergence; for Corn plant response rating: postemergence, visual rating, scale 0 (no effect) to 100 (complete control)
How it was run: as §4

wheat = assay: Test B postemergence herbicide test; format: in vivo, Triticum aestivum; parameters: key to Wheat plant response rating: 0 = no effect, 100 = complete control; conditions: postemergence, 500 g ai/ha; visual rating, scale 0 (no effect) to 100 (complete control)
How it was run: as §2

[12] = test system: small flower umbrella sedge; assay: Test B flooded paddy test; format: in vivo, Cyperus difformis; conditions: 1000 g ai/ha, visual rating, scale 0 to 100 (0 no effect, 100 complete control), 13 to 15 days
How it was run: as §1

redroot pigweed = assay: Test A pre-/postemergence herbicide test; format: in vivo, Amaranthus retroflexus
How it was run: as §3

cocklebur = assay: Test B pre-/postemergence herbicide test; format: in vivo, Xanthium strumarium; conditions: for Plant response rating, Cocklebur: preemergence; for Cocklebur plant response rating: postemergence, visual rating, scale 0 (no effect) to 100 (complete control)
How it was run: as §4

large crabgrass [13] = assay: Test B pre-/postemergence herbicide test; format: in vivo, Digitaria sanguinalis; conditions: for Plant response rating, Crabgrass, Large: preemergence; for Crabgrass, Large plant response rating: postemergence, visual rating, scale 0 (no effect) to 100 (complete control)
How it was run: as §4

barnyardgrass [14] = assay: Test A pre-/postemergence herbicide test; format: in vivo, Echinochloa crus-galli
How it was run: as §3

[15] = Postemergence, 500 g ai/ha, 0 to 100 scale, 0 no effect, 100 complete control
[16] = Postemergence, 2000 g ai/ha, 0 to 100 scale, 0 no effect, 100 complete control
[17] = Preemergence, 500 g ai/ha, visual rating, 0 to 100 scale (0 no effect, 100 complete control)
[18] = Preemergence, 2000 g ai/ha, visual rating, 0 to 100 scale (0 no effect, 100 complete control)
[19] = 500 g ai/ha, visual rating 0-100, 0 no effect, 100 complete control
[20] = 125 g ai/ha, 0 to 100 scale, 0 is no effect, 100 is complete control
[21] = preemergence, 500 g ai/ha, visual injury, 0 to 100 scale (0 no effect, 100 complete control)

CCn1nc(C(C)(C)C)cc1C(=O)Nc1cc(C(=O)OC)cc(C)n1 [Compound 148]
Ducksalad plant response rating (ducksalad): 0 | Oat, Wild plant response rating (wild oat; 125 g ai/ha): 10 | Oat, Wild plant response rating (wild oat; 500 g ai/ha): 10 | Crabgrass, Large plant response rating (large crabgrass [1]; [15]): 5 | Plant response rating, Crabgrass, Large (large crabgrass [1]; [16]): 10 | Crabgrass, Large plant response rating (large crabgrass [1]; [17]): 0 | Crabgrass, Large plant response rating (large crabgrass [1]; [18]): 15 | Plant response rating, Surinam Grass (Surinam grass; [19]): 0 | Surinam Grass plant response rating (Surinam grass; 125 g ai/ha): 10 | Surinam Grass plant response rating (Surinam grass; 500 g ai/ha): 10 | Plant response rating, Surinam Grass (Surinam grass; [20]): 0 | Blackgrass plant response rating (blackgrass; 125 g ai/ha): 0 | Blackgrass plant response rating (blackgrass; 500 g ai/ha): 0 | Plant response rating, Velvetleaf (velvetleaf [2]; [19]): 0 | Velvetleaf plant response rating (velvetleaf [2]; 125 g ai/ha): 10 | Velvetleaf plant response rating (velvetleaf [2]; 500 g ai/ha): 10 | Plant response rating, Velvetleaf (velvetleaf [2]; [20]): 0 | Plant response rating, Barnyardgrass (barnyardgrass [3]; [19]): 10 | Barnyardgrass plant response rating (barnyardgrass [3]; 125 g ai/ha): 0 | Barnyardgrass plant response rating (barnyardgrass [3]; 500 g ai/ha): 20 | Plant response rating, Barnyardgrass (barnyardgrass [3]; [20]): 0 | Morningglory plant response rating (morningglory [4]; [15]): 15 | Plant response rating, Morningglory (morningglory [4]; [16]): 10 | Morningglory plant response rating (morningglory [4]; [17]): 0 | Morningglory plant response rating (morningglory [4]; [18]): 5 | Barnyardgrass plant response rating (barnyardgrass [5]): 20 | Velvetleaf plant response rating (velvetleaf [6]; [15]): 20 | Plant response rating, Velvetleaf (velvetleaf [6]; [16]): 15 | Velvetleaf plant response rating (velvetleaf [6]; [18]): 10 | Velvetleaf plant response rating (velvetleaf [6]; [21]): 0 | Rice plant response rating (rice [7]): 0 | Plant response rating, Morningglory (morningglory [8]; [19]): 0 | Morningglory plant response rating (morningglory [8]; 125 g ai/ha): 10 | Morningglory plant response rating (morningglory [8]; 500 g ai/ha): 10 | Plant response rating, Morningglory (morningglory [8]; [20]): 0 | Lambsquarters plant response rating (lambsquarters; 125 g ai/ha): 10 | Lambsquarters plant response rating (lambsquarters; 500 g ai/ha): 10 | Plant response rating, Lambsquarters (lambsquarters; preemergence, 125 g ai/ha, 0 to 100 scale, 0 is no effect, 100 is complete control): 0 | Plant response rating, Rice (rice [9]; [19]): 10 | Plant response rating, Rice (rice [9]; [20]): 0 | Plant response rating, Foxtail, Giant (giant foxtail [10]; [19]): 20 | Foxtail, Giant plant response rating (giant foxtail [10]; 125 g ai/ha): 10 | Foxtail, Giant plant response rating (giant foxtail [10]; 500 g ai/ha): 10 | Plant response rating, Foxtail, Giant (giant foxtail [10]; [20]): 0 | Foxtail, Giant plant response rating (giant foxtail [11]; [15]): 15 | Plant response rating, Foxtail, Giant (giant foxtail [11]; [16]): 15 | Foxtail, Giant plant response rating (giant foxtail [11]; [17]): 0 | Foxtail, Giant plant response rating (giant foxtail [11]; [18]): 10 | Plant response rating, Pigweed (pigweed; [19]): 0 | Pigweed plant response rating (pigweed; 125 g ai/ha): 10 | Pigweed plant response rating (pigweed; 500 g ai/ha): 20 | Plant response rating, Pigweed (pigweed; [20]): 0 | Plant response rating, Corn (corn; [19]): 0 | Corn plant response rating (corn; 125 g ai/ha): 10 | Corn plant response rating (corn; 500 g ai/ha): 10 | Plant response rating, Corn (corn; [20]): 0 | Wheat plant response rating (wheat): 30 | Sedge, Umbrella plant response rating [12]: 70 | Pigweed plant response rating (redroot pigweed; [15]): 0 | Plant response rating, Pigweed (redroot pigweed; [16]): 15 | Pigweed plant response rating (redroot pigweed; [18]): 25 | Pigweed plant response rating (redroot pigweed; [21]): 0 | Plant response rating, Cocklebur (cocklebur; [19]): 0 | Cocklebur plant response rating (cocklebur; 125 g ai/ha): 20 | Cocklebur plant response rating (cocklebur; 500 g ai/ha): 70 | Plant response rating, Cocklebur (cocklebur; [20]): 0 | Plant response rating, Crabgrass, Large (large crabgrass [13]; [19]): 0 | Crabgrass, Large plant response rating (large crabgrass [13]; 125 g ai/ha): 10 | Crabgrass, Large plant response rating (large crabgrass [13]; 500 g ai/ha): 10 | Plant response rating, Crabgrass, Large (large crabgrass [13]; [20]): 0 | Barnyardgrass plant response rating (barnyardgrass [14]; [15]): 20 | Plant response rating, Barnyardgrass (barnyardgrass [14]; [16]): 25 | Barnyardgrass plant response rating (barnyardgrass [14]; [17]): 0 | Barnyardgrass plant response rating (barnyardgrass [14]; [18]): 20
